Assay results from US11179348B2, “Combination comprising pterostilbene for the treatment of cancer” (FUNDACIÓN UNIVERSIDAD CATÓLICA DE VALENCIA SAN VICENTE …, priority 2015, dated 2021).
Marks after values point to notes of the source that are not given here.

What was measured:
MeWo melanoma cells = assay: Nrf2- and redox state-related enzyme activities and metabolites in MeWo cells growing in vivo; parameters: species or system human; settings: in vivo +Pter, day 35
Method: Transfection of the Red Fluorescence Protein.
First the pDsRed-2 vector (Clontech Laboratories Inc., Palo Alto, Calif.) was used, as previously described for A375 melanoma cells (Mena, S. et al. J Transl Med 10, 8 (2012)), to engineer A2058, MeWo and MelJuso melanoma clones stably expressing the RFP. Isolation of A2058-RFP, MeWo-RFP or MelJuso-RFP cells from the growing xenografts was performed by laser microdissection and high-performance cell sorting as previously described in detail (Mena, S. et al. J Transl Med 10, 8 (2012)).
(§1) To measure enzyme activity, isolated tumor cells were homogenized in 0.1 M phosphate buffer (pH 7.2) at 4° C. GCL and GSS activities were measured as described previously (Obrador, E. et al. Hepatology 35, 74-81 (2002)). GPX (selenium dependent) activity was measured as described by Flohé and Gunzler (Flohe, L. & Gunzler, W. A. Methods Enzymol 105, 114-121 (1984)) using H2O2 as a substrate. GSR activity was determined as described by Akerboom and Sies (Akerboom, T. P. et al, Bull Eur Physiopathol Respir 17 Suppl, 221-227 (1981)). GGT activity was measured as described previously (Obrador, E. et al. Hepatology 35, 74-81 (2002)). GST activity was measured using an assay kit from Sigma. TXNRD activity, defined by the concentration of sodium-lipoate (disulfide) reduced to dehydrolipoate (dithiol) per milligram protein, was measured as previously described (Javvadi, P. et al. Cancer Res 70, 1941-1950 (2010)). SOD activity was measured as described by Flohé and Otting (Flohe, L. & Otting, F. Methods Enzymol 105, 93-104 (1984).) using 2 mM cyanide in the assay medium to distinguish mangano-type enzyme (SOD2) from the cuprozinc type (SOD1). CAT activity was analyzed as described by Aebi (Aebi, H. Methods Enzymol 105, 121-126 (1984)). NOX activity was measured by chemiluminescence following the methodology of Wind et al. (Wind, S. et al. Comparative pharmacology of chemically distinct NADPH oxidase inhibitors. Br J Pharmacol 161, 885-898 (2010)). Protein concentration was determined with the Pierce BCA protein assay (Fisher Scientific, Waltham, Mass.).
Measurement of H2O2 and O2^⋅−.
Quantitative measurement of H2O2 and flow cytometry determination of O2^⋅− generation were performed as previously described (Benlloch, M. et al. J Biol Chem 281, 69-79 (2006)).
(§2) GSH, GSSG, NADP^+ and NADPH Determination.
(§3) GSH and GSSG were determined, following procedures previously described (Obrador, E. et al. PLoS One 9, e96466 (2014)), by LC/MS using the same equipment described above for pterostilbene determination. Cell processing was performed according to published methodology, where rapid N-ethylmaleimide derivatization was used to prevent GSH auto-oxidation (Asensi, M. et al. Anal Biochem 217, 323-328 (1994)). NADP^+ and NADPH were quantitated using an assay kit from Sigma (St. Louis, Mo.).

HT-29 human colon cancer = settings: 20 μM Pter, 24 h, in vitro; cited from earlier work
NORA = assay: Plasma NORA levels (ELISA) in melanoma-bearing mice; assay type: in vivo; settings: melanoma-bearing mice treated vs not treated with Pter
Text: Measurement of ACTH, Corticosterone, and NORA Levels.
Plasma levels of ACTH (Calbiotech, Inc., Spring Valley, Calif.), corticosterone (Kamiyama Biomedical Co., Seattle, Wash.), and NORA (IBL, Hamburg, Germany) were quantified by ELISA according to the instructions of the suppliers.

A549 cells = assay: GSH levels and glutathione- and oxidative stress-related enzyme activities in A549 cells growing in vivo; parameters: species or system human; settings: A549, in vivo Pter, day 35
Method: as §1, §2, §3
Isolation of Tumor Cells from Mouse Xenografts Using Enzymatic Digestion and a double Ficoll gradient.
To maximize the amount of isolated cells, avoiding the use of RFP-transfected cells and subsequent laser microdissection, an alternative methodology was set up. To maximize cell yield and viability the following combination of enzymes was used: collagenase III (200 U/ml; Sigma-Aldrich), DNase I (200 U/ml; Sigma-Aldrich) and trypsin (5 mg/ml; Invitrogen), and a non-enzymatic dissociation buffer (NEDB, Invitrogen). Briefly, mice were killed, and tumors were removed (avoiding skin, muscle and fat) into cold culture media and processed immediately. The tumors were minced into 1-3 mm fragments, which were then incubated with the dissociation solution (see above) for 30 min at 37° C. The tumor fragments were mixed up and down every 10 min using a […] micropipette with a tip cut to a diameter adapted to tissue fragment size. After each incubation period, the fragments were filtered through a […] nylon mesh cell strainer (BD Biosciences, San Diego, Calif., USA). The released cells were centrifuged at 1200 r.p.m. for 2 min and stored in cold CO2-independent medium with 30% FCS at […]. Fresh dissociation solution was added to the remaining tissue fragments for 30 min. Dissociation was stopped when no additional cells were released. The fragments were pushed through a sieve and all cells from all incubation periods were pooled and counted.
The dissociated cells were layered onto a double Ficoll gradient (Histopaque; Sigma-Aldrich; densities 1.077 and 1.119) and spun at 700 g for 30 min at room temperature. Cells removed from both interfaces were pooled and washed two times in CO2-independent medium and stored at 4° C. Debris and red blood cell elimination was improved with the dual-density gradient. […]

[1] = test system: PC-3 prostate adenocarcinoma; assay: In vivo growth of PC-3 prostate cancer xenografts; parameters: species or system human; settings: PC-3, day 21

COc1cc(/C=C/c2ccc(O)cc2)cc(OC)c1 [Pter, trans-3,5-dimethoxy-4′-hydroxystilbene]
CAT (MeWo melanoma cells): 1.6 ± 0.4 mU/10^6 cells
G6PDH (MeWo melanoma cells): 266 ± 39 mU/10^6 cells
GCL (MeWo melanoma cells): 35 ± 12 mU/10^6 cells
GGT (MeWo melanoma cells): 16.0 ± 2.4 mU/10^6 cells
GPX (MeWo melanoma cells): 2.8 ± 1.0 mU/10^6 cells
GSH (MeWo melanoma cells): 7.3 ± 1.7 nmol/10^6 cells
GSH/GSSG (MeWo melanoma cells): 73 ± 11
GSR (MeWo melanoma cells): 4.9 ± 1.2 mU/10^6 cells
GSS (MeWo melanoma cells): 7.4 ± 1.6 mU/10^6 cells
GSSG (MeWo melanoma cells): 0.1 ± 0.03 nmol/10^6 cells
GST (MeWo melanoma cells): 6.5 ± 1.3 mU/10^6 cells
H2O2 (MeWo melanoma cells): 0.7 ± 0.2 nmol/10^6 cells × min
IDH (MeWo melanoma cells): 1.5 ± 0.4 U/10^6 cells
ME (MeWo melanoma cells): 32 ± 11 mU/10^6 cells
NADPH (MeWo melanoma cells): 0.05 ± 0.002 nmol/mg prot
NADPH/NADP^+ (MeWo melanoma cells): 1.2 ± 0.2
NADP^+ (MeWo melanoma cells): 0.04 ± 0.01 nmol/mg prot
NOX (MeWo melanoma cells): 132 ± 25 R.L.U./10^6 cells
O2^− (MeWo melanoma cells): 3.5 ± 0.7 ΔFL1, a.u.
SOD1 (MeWo melanoma cells): 0.5 ± 0.2 U/10^6 cells
SOD2 (MeWo melanoma cells): 0.1 ± 0.05 U/10^6 cells
TXN (MeWo melanoma cells): 0.8 ± 0.2 μg/10^6 cells
TXNRD (MeWo melanoma cells): 0.9 ± 0.2 U/10^6 cells
decrease in tumor cell viability (HT-29 human colon cancer): ~10%
NORA levels in plasma (NORA): not significantly different
CAT (A549 cells): 0.3 ± 0.01 mU/10^6 cells
GCL (A549 cells): 39 ± 16 mU/10^6 cells
GSH (A549 cells): 4.7 ± 1.5 nmol/10^6 cells
GSS (A549 cells): 3.9 ± 1.0 mU/10^6 cells
GSSG (A549 cells): 0.2 ± 0.07 nmol/10^6 cells
SOD1 (A549 cells): 0.5 ± 0.1 U/10^6 cells
SOD2 (A549 cells): 0.04 ± 0.01 U/10^6 cells
Tumor vol. [1]: 276 ± 74* mm^3
